Assay results published in patent US20160368870A1, “OLEFIN SUBSTITUTED OXINDOLES HAVING AMPK ACTIVITY” (BOEHRINGER INGELHEIM INTERNATIONAL GMBH, priority 2013, published 2016).

How the values were obtained:
[1] = target: T1, AMPK beta 1 (Homo sapiens, UniProt Q13131+Q9Y478); assay: in-cell-ELISA for phospho-ACC, Activity beta 1; type: cell-based; details: 2 h, serum free DMEM, percentage activation over vehicle control, cell line not given (HepG2 or C2C12 myotubes)
T1 construct: in-cell-ELISA for phospho-ACC (Acetyl-CoA carboxylase 1) in HepG2 cells (liver); endogenous in cells; host or cells: HepG2
T1 sequence (Q9Y478 whole entry): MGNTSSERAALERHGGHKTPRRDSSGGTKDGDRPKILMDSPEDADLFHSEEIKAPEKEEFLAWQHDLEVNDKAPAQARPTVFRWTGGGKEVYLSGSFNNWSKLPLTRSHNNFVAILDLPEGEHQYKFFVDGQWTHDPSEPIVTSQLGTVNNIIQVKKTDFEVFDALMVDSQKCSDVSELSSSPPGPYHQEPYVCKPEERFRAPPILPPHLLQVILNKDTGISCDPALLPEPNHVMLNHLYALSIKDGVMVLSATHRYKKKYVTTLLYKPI
T1 sequence (Q13131 whole entry): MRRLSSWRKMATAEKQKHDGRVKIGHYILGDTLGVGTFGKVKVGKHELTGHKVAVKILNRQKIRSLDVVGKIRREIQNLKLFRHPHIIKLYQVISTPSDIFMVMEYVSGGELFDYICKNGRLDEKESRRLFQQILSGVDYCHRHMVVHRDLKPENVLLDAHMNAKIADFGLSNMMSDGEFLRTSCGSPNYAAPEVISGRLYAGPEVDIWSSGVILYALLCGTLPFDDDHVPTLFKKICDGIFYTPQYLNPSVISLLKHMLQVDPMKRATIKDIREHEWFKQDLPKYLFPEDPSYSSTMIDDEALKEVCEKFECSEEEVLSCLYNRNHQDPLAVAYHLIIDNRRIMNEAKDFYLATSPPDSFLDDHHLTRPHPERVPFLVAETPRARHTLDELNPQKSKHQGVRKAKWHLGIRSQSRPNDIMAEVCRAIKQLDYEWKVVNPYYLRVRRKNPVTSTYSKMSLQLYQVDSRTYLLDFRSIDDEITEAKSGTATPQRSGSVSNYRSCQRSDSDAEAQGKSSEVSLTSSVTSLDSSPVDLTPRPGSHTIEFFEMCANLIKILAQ
T1 sequence (P54619 whole entry partner): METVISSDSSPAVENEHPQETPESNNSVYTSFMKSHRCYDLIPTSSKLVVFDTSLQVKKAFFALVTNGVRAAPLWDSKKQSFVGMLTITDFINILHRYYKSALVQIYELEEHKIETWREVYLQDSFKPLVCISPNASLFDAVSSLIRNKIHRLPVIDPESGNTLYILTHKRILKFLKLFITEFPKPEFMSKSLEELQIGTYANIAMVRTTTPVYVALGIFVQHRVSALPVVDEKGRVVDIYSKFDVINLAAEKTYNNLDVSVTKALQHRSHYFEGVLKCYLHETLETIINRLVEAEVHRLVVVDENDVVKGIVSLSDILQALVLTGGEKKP
Description: (§1) Activation of AMPK by various compounds were measured using in-cell-ELISA for phospho-ACC (Acetyl-CoA carboxylase 1) in HepG2 cells (liver) and fully differentiated myotubes (C2C12 cells) grown in 96 well plate. Cells were treated with 1 μM of the molecule for 2 h in serum free DMEM media. After methanol fixation, cells were blocked with BSA followed by addition of anti-phospho ACC antibody (Cell Signaling) and HRP conjugated secondary antibody. Absorbance values taken at 450 nm and were normalized with total DNA (Hoechest stain). Results were expressed as percentage activation over vehicle control.

[2] = solubility of sodium salt in water; type: physicochemical; details: read-out: soluble in water
Description: To a stirred solution of acid (compound 67, 1 mmol) in EtOH (25v) was added 0.5M NaOH solution (1 mmol) drop-wise at 30° C. followed by 10V of water. After 30 minutes, excess of ethanol was removed under reduced pressure at 35 deg C. and repeatedly distilled with ethanol two or three times until free solid obtained. The solid was further washed with n-Hexane to obtain compound 67 Compound 67 is soluble in 1 mg/mL water.
The protocol for synthesizing compound 67 was followed to prepare compound 68. Compound 68 is also soluble in 1 mg/mL water.

[3] = target: T2, AMPK beta 2 (Mus musculus, UniProt Q6PAM0+Q8BRK8); assay: in-cell-ELISA for phospho-ACC, Activity beta 2; type: cell-based; details: 2 h, serum free DMEM, percentage activation over vehicle control, cell line not given (HepG2 or C2C12 myotubes)
T2 construct: fully differentiated myotubes (C2C12 cells) grown in 96 well plate; endogenous in cells; host or cells: C2C12 myotubes
T2 sequence (Q6PAM0 whole entry): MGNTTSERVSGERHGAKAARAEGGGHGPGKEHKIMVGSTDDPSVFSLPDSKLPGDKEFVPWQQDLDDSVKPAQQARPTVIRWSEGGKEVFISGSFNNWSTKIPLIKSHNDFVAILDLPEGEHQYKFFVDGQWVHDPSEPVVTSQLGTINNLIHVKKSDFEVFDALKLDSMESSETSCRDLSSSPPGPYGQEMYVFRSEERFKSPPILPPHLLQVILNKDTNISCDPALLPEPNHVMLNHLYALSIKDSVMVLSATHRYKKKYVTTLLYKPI
T2 sequence (Q8BRK8 whole entry): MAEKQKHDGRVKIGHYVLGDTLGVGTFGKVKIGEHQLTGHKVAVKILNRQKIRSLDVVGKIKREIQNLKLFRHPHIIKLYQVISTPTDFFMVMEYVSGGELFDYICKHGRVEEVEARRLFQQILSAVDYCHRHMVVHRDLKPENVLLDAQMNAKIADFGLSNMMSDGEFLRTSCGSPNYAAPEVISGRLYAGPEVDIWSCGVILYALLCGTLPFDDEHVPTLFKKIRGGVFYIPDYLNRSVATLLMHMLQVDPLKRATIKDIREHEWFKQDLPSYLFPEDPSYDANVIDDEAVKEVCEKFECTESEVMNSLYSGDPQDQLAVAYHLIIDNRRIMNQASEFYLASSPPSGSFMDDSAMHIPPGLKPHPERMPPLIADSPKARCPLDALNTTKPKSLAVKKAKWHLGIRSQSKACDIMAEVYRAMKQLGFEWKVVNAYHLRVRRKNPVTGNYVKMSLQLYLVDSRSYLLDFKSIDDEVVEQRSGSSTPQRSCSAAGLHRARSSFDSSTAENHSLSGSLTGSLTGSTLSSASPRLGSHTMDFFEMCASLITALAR
T2 sequence (O54950 whole entry partner): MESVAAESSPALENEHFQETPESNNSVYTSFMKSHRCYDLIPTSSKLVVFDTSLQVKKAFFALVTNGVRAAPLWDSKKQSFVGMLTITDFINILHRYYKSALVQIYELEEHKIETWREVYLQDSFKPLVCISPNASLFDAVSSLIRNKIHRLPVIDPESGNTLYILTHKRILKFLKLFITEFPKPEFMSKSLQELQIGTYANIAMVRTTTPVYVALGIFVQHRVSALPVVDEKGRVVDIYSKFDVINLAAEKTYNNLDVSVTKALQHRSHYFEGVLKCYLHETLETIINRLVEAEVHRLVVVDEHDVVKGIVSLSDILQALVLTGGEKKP
Description: as §1

activation at 1 µM [1] [%]	solubility [2] [µg/mL]	Activity beta 2 (at 1 uM) [3]	Compound
> 40	≥ 1000	–	COc1ccc(/C=C2\C(=O)Nc3cc(Cl)c(-c4ccc(-c5ccc(-n6cncn6)cc5)cc4)cc32)cc1CC(=O)[O-].[Na+] [Example 67, sodium {5-[(E/Z)-{6-chloro-2-oxo-5-[4′-(1H-1,2,4-triazol-1-yl)biphenyl-4-yl]-1,2-dihydro-3H-indol-3-ylidene}methyl]-2-methoxyphenyl}acetate]
> 40	–	*** (*** >40)	O=C(O)Cc1ccc(C=C2C(=O)Nc3cc(Cl)c(-c4ccc(-c5ccc(-n6cncn6)cc5)cc4)cc32)cc1 [Example 53]
> 40	–	*** (*** >40)	Cn1cc(C=C2C(=O)Nc3cc(Cl)c(-c4ccc(-c5ccccc5O)cc4)cc32)cc1C(=O)O [Example 13]
> 40	≥ 1000	–	O=C(O)Cc1ccc(/C=C2\C(=O)Nc3cc(Cl)c(-c4ccc(-c5ccc(-n6cncn6)cc5)cc4)cc32)cc1 [Example 68, sodium {4-[(E/Z)-{6-chloro-2-oxo-5-[4′-(1H-1,2,4-triazol-1-yl)biphenyl-4-yl]-1,2-dihydro-3H-indol-3-ylidene}methyl]phenyl}acetate]
